Measured values as given in patent US10640497B2, “Microbiocidal oxadiazole derivatives” (SYNGENTA PARTICIPATIONS AG, priority 2015, dated 2020).

How the values were obtained:
[1] = test system: Glomerella lagenarium (Colletotrichum lagenarium); test: Fungicidal activity against Glomerella lagenarium (Colletotrichum lagenarium), liquid culture, cucumber, preventative (anthracnose); assay type: cell-based; settings: Colletotrichum orbiculare, liquid culture (PDB), growth inhibition measured photometrically 3-4 days after application, compared to untreated control
Description: Mycelia fragments or conidia suspensions of a fungus, prepared either freshly from liquid cultures of the fungus or from cryogenic storage, are directly mixed into nutrient broth. DMSO solutions of the test compound (max. 10 mg/ml) is diluted with 0.025% Tween20 by a factor of 50 and 10 μl of this solution is pipetted into a microtiter plate (96-well format). The nutrient broth containing the fungal spores/mycelia fragments is then added to give an end concentration of the tested compound. The test plates are incubated in the dark at 24° C. and 96% relative humidity. The inhibition of fungal growth is determined photometrically after 2 to 7 days, depending on the pathosystem, and percent antifungal activity relative to the untreated check is calculated. Conidia of the fungus from cryogenic storage are directly mixed into nutrient broth (PDB potato dextrose broth). After placing a (DMSO) solution of test compound into a microtiter plate (96-well format), the nutrient broth containing the fungal spores is added. The test plates are incubated at 24° C. and the inhibition of growth is measured photometrically 3-4 days after application.

Phakopsora pachyrhizi = test: Fungicidal activity against Phakopsora pachyrhizi, soybean, leaf disc preventative (Asian soybean rust); assay type: in vivo; settings: foliar, 288 h, 12-14 days after application, compared to untreated control
Description: Leaf disks or leaf segments of various plant species are cut from plants grown in a greenhouse. The cut leaf disks or segments are placed in multiwell plates (24-well format) onto water agar. The leaf disks are sprayed with a test solution before (preventative) or after (curative) inoculation. Compounds to be tested are prepared as DMSO solutions (max. 10 mg/ml) which are diluted to the appropriate concentration with 0.025% Tween20 just before spraying. The inoculated leaf disks or segments are incubated under defined conditions (temperature, relative humidity, light, etc.) according to the respective test system. A single evaluation of disease level is carried out 3 to 14 days after inoculation, depending on the pathosystem. Percent disease control relative to the untreated check leaf disks or segments is then calculated. Soybean leaf disks are placed on water agar in multiwell plates (24-well format) and sprayed with the formulated test compound diluted in water. One day after application leaf discs are inoculated by spraying a spore suspension on the lower leaf surface. After an incubation period in a climate cabinet of 24-36 hours in darkness at 20° C. and 75% rh leaf disc are kept at 20° C. with 12 h light/day and 75% rh. The activity of a compound is assessed as percent disease control compared to untreated when an appropriate level of disease damage appears in untreated check leaf disks (12-14 days after application).

[2] = test system: Puccinia recondita f. sp. tritici; test: Fungicidal activity against Puccinia recondita f. sp. tritici, wheat, leaf disc curative (brown rust); assay type: in vivo; settings: foliar, 144 h, wheat leaf segments, curative (applied 1 day after inoculation), 6-8 days after application, compared to untreated control
Description: (§1) Leaf disks or leaf segments of various plant species are cut from plants grown in a greenhouse. The cut leaf disks or segments are placed in multiwell plates (24-well format) onto water agar. The leaf disks are sprayed with a test solution before (preventative) or after (curative) inoculation. Compounds to be tested are prepared as DMSO solutions (max. 10 mg/ml) which are diluted to the appropriate concentration with 0.025% Tween20 just before spraying. The inoculated leaf disks or segments are incubated under defined conditions (temperature, relative humidity, light, etc.) according to the respective test system. A single evaluation of disease level is carried out 3 to 14 days after inoculation, depending on the pathosystem. Percent disease control relative to the untreated check leaf disks or segments is then calculated. Wheat leaf segments cv. Kanzler are placed on agar in multiwell plates (24-well format). The leaf segments are inoculated with a spore suspension of the fungus. Plates are stored in darkness at 19° C. and 75% rh. The formulated test compound diluted in water is applied 1 day after inoculation. The leaf segments are incubated at 19° C. and 75% rh under a light regime of 12 h light/12 h darkness in a climate cabinet and the activity of a compound is assessed as percent disease control compared to untreated when an appropriate level of disease damage appears in untreated check leaf segments (6-8 days after application).

[3] = test system: Puccinia recondita f. sp. tritici; test: Fungicidal activity against Puccinia recondita f. sp. tritici, wheat, leaf disc preventative (brown rust); assay type: in vivo; settings: foliar, wheat leaf segments, preventative (inoculated 1 day after application), 7-9 days after application, compared to untreated control
Description: as §1, with “plates (24-well format) and sprayed with the formulated test compound diluted in water. The leaf” for “plates (24-well format). The leaf”, “of the fungus 1 day” for “of the fungus. Plates are stored in darkness at 19° C. and 75% rh. The formulated test compound diluted in water is applied 1 day”, “day after application. The inoculated” for “day after inoculation. The leaf”, “application. The inoculated leaf segments” for “inoculation. The leaf segments”, “leaf segments (7-9 days after” for “leaf segments (6-8 days after”

O=C1CCC(C(F)F)N1Cc1ccc(-c2noc(C(F)(F)F)n2)cc1 (centres unmarked) [Compound A-21, 5-(difluoromethyl)-1-[[4-[5-(trifluoromethyl)-1,2,4-oxadiazol-3-yl]phenyl]methyl]pyrrolidin-2-one]
≥ 80%: inhibition of growth at 20 ppm [1] | pest or weed control at 200 ppm (Phakopsora pachyrhizi) | pest or weed control at 200 ppm [2] | pest or weed control at 200 ppm [3]

O=C1CCN1Cc1ccc(-c2noc(C(F)(F)F)n2)cc1 [Compound A-23, 1-[[4-[5-(trifluoromethyl)-1,2,4-oxadiazol-3-yl]phenyl]methyl]azetidin-2-one]
≥ 80%: inhibition of growth at 20 ppm [1] | pest or weed control at 200 ppm (Phakopsora pachyrhizi) | pest or weed control at 200 ppm [2] | pest or weed control at 200 ppm [3]

O=C1C2CCC(C2)N1Cc1ccc(-c2noc(C(F)(F)F)n2)cc1 (centres unmarked) [Compound A-24, 3-[[4-[5-(trifluoromethyl)-1,2,4-oxadiazol-3-yl]phenyl]methyl]-3-azabicyclo[2.2.1]heptan-2-one]
≥ 80%: inhibition of growth at 20 ppm [1] | pest or weed control at 200 ppm (Phakopsora pachyrhizi) | pest or weed control at 200 ppm [2] | pest or weed control at 200 ppm [3]

O=C1CCCC2(CC2)N1Cc1ccc(-c2noc(C(F)(F)F)n2)cc1 [Compound A-25, 4-[[4-[5-(trifluoromethyl)-1,2,4-oxadiazol-3-yl]phenyl]methyl]-4-azaspiro[2.5]octan-5-one]
≥ 80%: inhibition of growth at 20 ppm [1] | pest or weed control at 200 ppm (Phakopsora pachyrhizi) | pest or weed control at 200 ppm [2] | pest or weed control at 200 ppm [3]

O=C1CCC2(CC2)N1Cc1ccc(-c2noc(C(F)(F)F)n2)cc1 [Compound A-27, 4-[[4-[5-(trifluoromethyl)-1,2,4-oxadiazol-3-yl]phenyl]methyl]-4-aza-spiro[2.4]heptan-5-one]
≥ 80%: inhibition of growth at 20 ppm [1] | pest or weed control at 200 ppm (Phakopsora pachyrhizi) | pest or weed control at 200 ppm [2] | pest or weed control at 200 ppm [3]

O=C1CCCCN1Cc1ccc(-c2noc(C(F)(F)F)n2)cc1F [Compound A-29, 1-[[2-fluoro-4-[5-(trifluoromethyl)-1,2,4-oxadiazol-3-yl]phenyl]methyl]piperidin-2-one]
≥ 80%: inhibition of growth at 20 ppm [1] | pest or weed control at 200 ppm (Phakopsora pachyrhizi) | pest or weed control at 200 ppm [2] | pest or weed control at 200 ppm [3]

CCOC(=O)N1CCN(Cc2ccc(-c3noc(C(F)(F)F)n3)cc2)C(=O)C1 [Compound A-32, ethyl 3-oxo-4-[[4-[5-(trifluoromethyl)-1,2,4-oxadiazol-3-yl]phenyl]methyl]piperazine-1-carboxylate]
≥ 80%: inhibition of growth at 20 ppm [1] | pest or weed control at 200 ppm (Phakopsora pachyrhizi) | pest or weed control at 200 ppm [2] | pest or weed control at 200 ppm [3]

CC(=O)N1CCN(Cc2ccc(-c3noc(C(F)(F)F)n3)cc2)C(=O)C1 [Compound A-35, 4-acetyl-1-[[4-[5-(trifluoromethyl)-1,2,4-oxadiazol-3-yl]phenyl]methyl]piperazin-2-one]
≥ 80%: inhibition of growth at 20 ppm [1] | pest or weed control at 200 ppm (Phakopsora pachyrhizi) | pest or weed control at 200 ppm [2] | pest or weed control at 200 ppm [3]

O=C1CCCON1Cc1ccc(-c2noc(C(F)(F)F)n2)cc1 [Compound A-37, 2-[[4-[5-(trifluoromethyl)-1,2,4-oxadiazol-3-yl]phenyl]methyl]oxazinan-3-one]
≥ 80%: inhibition of growth at 20 ppm [1] | pest or weed control at 200 ppm (Phakopsora pachyrhizi) | pest or weed control at 200 ppm [2] | pest or weed control at 200 ppm [3]

CON(C)C(=O)N1CCN(Cc2ccc(-c3noc(C(F)(F)F)n3)cc2)C(=O)C1 [Compound A-39, N-methoxy-N-methyl-3-oxo-4-[[4-[5-(trifluoromethyl)-1,2,4-oxadiazol-3-yl]phenyl]methyl]piperazine-1-carboxamide]
≥ 80%: inhibition of growth at 20 ppm [1] | pest or weed control at 200 ppm (Phakopsora pachyrhizi) | pest or weed control at 200 ppm [2] | pest or weed control at 200 ppm [3]

O=C1CN(C(=O)C2CC2)CCN1Cc1ccc(-c2noc(C(F)(F)F)n2)cc1 [Compound A-40, 4-(cyclopropane-carbonyl)-1-[[4-[5-(trifluoromethyl)-1,2,4-oxadiazol-3-yl]phenyl]methyl]piperazin-2-one]
≥ 80%: inhibition of growth at 20 ppm [1] | pest or weed control at 200 ppm (Phakopsora pachyrhizi) | pest or weed control at 200 ppm [2] | pest or weed control at 200 ppm [3]

CN(C)S(=O)(=O)N1CCN(Cc2ccc(-c3noc(C(F)(F)F)n3)cc2)C(=O)C1 [Compound A-42, N,N-dimethyl-3-oxo-4-[[4-[5-(trifluoromethyl)-1,2,4-oxadiazol-3-yl]phenyl]methyl]piperazine-1-sulfonamide]
≥ 80%: inhibition of growth at 20 ppm [1] | pest or weed control at 200 ppm (Phakopsora pachyrhizi) | pest or weed control at 200 ppm [2] | pest or weed control at 200 ppm [3]

CNS(=O)(=O)N1CCN(Cc2ccc(-c3noc(C(F)(F)F)n3)cc2)C(=O)C1 [Compound A-43, N-methyl-3-oxo-4-[[4-[5-(trifluoromethyl)-1,2,4-oxadiazol-3-yl]phenyl]methyl]piperazine-1-sulfonamide]
≥ 80%: inhibition of growth at 20 ppm [1] | pest or weed control at 200 ppm (Phakopsora pachyrhizi) | pest or weed control at 200 ppm [2] | pest or weed control at 200 ppm [3]

CN1CCN(Cc2ccc(-c3noc(C(F)(F)F)n3)cc2)C1=O [Compound A-46, 1-methyl-3-[[4-[5-(trifluoromethyl)-1,2,4-oxadiazol-3-yl]phenyl]methyl]imidazolidin-2-one]
≥ 80%: inhibition of growth at 20 ppm [1] | pest or weed control at 200 ppm (Phakopsora pachyrhizi) | pest or weed control at 200 ppm [2] | pest or weed control at 200 ppm [3]

CN1C(=O)CN(Cc2ccc(-c3noc(C(F)(F)F)n3)cc2)C1=O [Compound A-47, 3-methyl-1-[[4-[5-(trifluoromethyl)-1,2,4-oxadiazol-3-yl]phenyl]methyl]imidazolidine-2,4-dione]
≥ 80%: inhibition of growth at 20 ppm [1] | pest or weed control at 200 ppm (Phakopsora pachyrhizi) | pest or weed control at 200 ppm [2] | pest or weed control at 200 ppm [3]

CN1CCCN(Cc2ccc(-c3noc(C(F)(F)F)n3)cc2)C1=O [Compound A-48, 1-methyl-3-[[4-[5-(trifluoromethyl)-1,2,4-oxadiazol-3-yl]phenyl]methyl]hexahydro-pyrimidin-2-one]
≥ 80%: inhibition of growth at 20 ppm [1] | pest or weed control at 200 ppm (Phakopsora pachyrhizi) | pest or weed control at 200 ppm [2] | pest or weed control at 200 ppm [3]

CN1CC(=O)N(Cc2ccc(-c3noc(C(F)(F)F)n3)cc2)C1=O [Compound A-50, 1-methyl-3-[[4-[5-(trifluoromethyl)-1,2,4-oxadiazol-3-yl]phenyl]methyl]imidazolidine-2,4-dione]
≥ 80%: inhibition of growth at 20 ppm [1] | pest or weed control at 200 ppm (Phakopsora pachyrhizi) | pest or weed control at 200 ppm [2] | pest or weed control at 200 ppm [3]
